Reference: patent EP1595536A1, “PHARMACEUTICALS COMPRISING SHIKONINS AS ACTIVE CONSTITUENT” (Beijing JBC Chinese Traditional Medicine Science and …, priority 2003, dated 2004)
≈ marks a conversion by molar mass, not a printed value. Like-named read-outs stand apart in the source and are kept apart here.

Tests used:
dermatophyte = test: In vitro antifungal test; format: cell-based
C.krusei = test: In vitro antifungal test; format: cell-based; conditions: Pichia kudriavzevii
mycoplasma pneumoniae = test: Bacteriostatic effect on mycoplasma
[1] = tested on: Ascitic tyre liver cancer; test: Animal test of tumor restraint; format: in vivo
Candida albicans = test: Comparative MIC experiment, Zicao extract vs Shikonin compounds
stenotrophomonas bacilli = test: Drug sensitivity test (MIC)
S180 = test: Animal test of tumor restraint; format: in vivo
DHBV = test: Virus restraint in DHBV-infected duck; format: in vivo; conditions: oral, 100mg/kg twice a day, 10 days
candida and cryptococcus = test: In vitro antifungal test; format: cell-based
Helicobacter pylori = test: Drug sensitivity test (MIC)
[2] = tested on: aspergillus fumigatus, cryptococcus and red trichophyton; test: In vitro antifungal test; format: cell-based
[3] = tested on: Gram-positive staphylococcus aureus; test: Drug sensitivity test (MIC)
Pseudallescheria boydii = test: In vitro antifungal test; format: cell-based; conditions: Scedosporium boydii
bacteroides fragilis = test: Drug sensitivity test (MIC)
Bacteroid = test: Comparative MIC experiment, Zicao extract vs Shikonin compounds; format: cell-based
Serratia marcescens = test: as above
pneumobacillus = test: Drug sensitivity test (MIC)
[4] = tested on: Staphylococcus epidermidis; test: Comparative MIC experiment, Zicao extract vs Shikonin compounds
Lewis lung cancer = test: Animal test of tumor restraint; format: in vivo
W256 = test: Animal test of tumor restraint; format: in vivo
L1210 = test: Animal test of tumor restraint; format: in vivo
cryptococcus neoformans = test: In vitro antifungal test; format: cell-based
red trichophyton = test: In vitro antifungal test; format: cell-based
[5] = stenotrophomonas bacilli, stated as especially effective, compared with berberine
[6] = Gram-positive staphylococcus aureus
[7] = bacteroid, especially bacteroides fragilis

| Structure (SMILES) | MIC (dermatophyte) [µg/mL] | MIC90 (dermatophyte) [µg/mL] | Life prolonged rate [1] [%] | MIC (stenotrophomonas bacilli; Stenotrophomonas) [µg/mL] | Tumor inhibitory rate (S180) [%] | MIC (Helicobacter pylori) | MIC (pneumobacillus) | MIC (pneumobacillus; some bacterial strains) | Tumor inhibitory rate (Lewis lung cancer) [%] | MIC (mycoplasma pneumoniae; mycoplasma pneumoniae) | MIC (stenotrophomonas bacilli; [5]) | MIC [3, 6] | MIC (bacteroides fragilis; [7]) | other results |
| --- | --- | --- | --- | --- | --- | --- | --- | --- | --- | --- | --- | --- | --- | --- |
| OC(Cn1cncn1)(Cn1cncn1)c1ccc(F)cc1F [fluconazole, reference compound] | 32 to 64 (≈ 104 to 209 µM) | 64 (≈ 209 µM) |  |  |  |  |  |  |  |  |  |  |  |  |
| CC(C)=CCC(OC(=O)C=C(C)C)C1=CC(=O)c2c(O)ccc(O)c2C1=O (stereo not drawn) | 4.16 to 8.32 (≈ 11.2 to 22.5 µM) | 4.16 (≈ 11.2 µM) | 113.4 | 0.391 to 0.781 (≈ 1.06 to 2.11 µM) | 9.63 | 0.391 to 0.781 µg/mL (≈ 1.06 to 2.11 µM) | 0.391 to 6.25 µg/mL (≈ 1.06 to 16.9 µM) | 12.5 to 50 µg/mL (≈ 33.7 to 135 µM) | 42.8 |  |  |  |  | MIC (C.krusei): 8.32 to 16.6 µg/mL (≈ 22.5 to 44.8 µM); MIC (mycoplasma pneumoniae; Mycoplasma): 2 µg/mL (≈ 5.4 µM); MIC (Candida albicans): 3.91 µg/mL (≈ 10.5 µM); toxic reaction (DHBV): without toxic reaction; MIC (candida and cryptococcus): 2.08 to 33.3 µg/mL (≈ 5.62 to 89.9 µM); MIC90 (candida and cryptococcus): 33.3 µg/mL (≈ 89.9 µM); MIC [2]: 3.06 to 250 µg/mL (≈ 8.27 to 675 µM); MIC ([3]; Staphylococcus aureus): 0.391 to 12.5 µg/mL (≈ 1.06 to 33.7 µM); MIC (Pseudallescheria boydii): 4.16 to 8.32 µg/mL (≈ 11.2 to 22.5 µM); MIC (bacteroides fragilis; Bacteroides fragilis): 0.391 to 6.25 µg/mL (≈ 1.06 to 16.9 µM); MIC (Bacteroid): 0.391 µg/mL (≈ 1.06 µM); MIC (Serratia marcescens): 0.781 µg/mL (≈ 2.11 µM); MIC [4]: 0.391 µg/mL (≈ 1.06 µM) |
| CC(=O)O[C@H](CC=C(C)C)C1=CC(=O)c2c(O)ccc(O)c2C1=O [Acetylshikonin] |  |  | 112.6 |  | 35.7 | 0.391 - 0.781 ì g/ml | 0.391-6.25 ì g/ml | 12.5-50 ì g/ml | 52.6 | 7.819 ì g/ml | 0.391-0.781 ì g/ml | 0.391-12.5 ì g/ml | 0.391-6.25 ì g/ml | Tumor inhibitory rate [1]: 47.8%; Tumor inhibitory rate (W256): 77%; Life prolonged rate (L1210): 128%; MIC (cryptococcus neoformans): 3.906 ¦Ìg/ml; MIC (red trichophyton): 0.9062- 62.5 ¦Ìg/ml |
| COc1ccc2cc3[n+](cc2c1OC)CCc1cc2c(cc1-3)OCO2 [berberine, reference compound] |  |  |  | 8 to 32 |  |  |  |  |  |  |  |  |  |  |
| CC(C)=CC[C@@H](O)C1=CC(=O)c2c(O)ccc(O)c2C1=O [Shikonin] |  |  | 130.8 |  |  | 0.391 - 0.781 ì g/ml | 0.391-6.25 ì g/ml | 12.5-50 ì g/ml |  | 3.751 ì g/ml | 0.391-0.781 ì g/ml | 0.391-12.5 ì g/ml | 0.391-6.25 ì g/ml |  |
